Results published in patent US11267806B2, “Indazole compound for use in inhibiting kinase activity, composition and application thereof” (Shenzhen TargetRx, Inc., priority 2017, dated 2022).
Like-named read-outs stand apart in the source and are kept apart here.

Assays:
[1] = test system: Ba/F3 EML-ALK cells; assay: Cytotoxicity assay (cell viability, CellTiter-Glo), Ba/F3 EML-ALK; type: cell-based; settings: Mus musculus, BaF3, 72 h, read-out: Ba/F3 EML-ALK IC50
[2] = Liver microsomal metabolism assay, human; type: in vitro ADME; settings: pH 7.4, human liver microsomes 0.5 mg/mL, compound 1 μM, 37° C.; for microsomal CLint at 1 μM: read-out: Human liver microsome assay CLint; for half-life at 1 μM: read-out: Human liver microsome assay t1/2
Description: (§1) (3) Liver Microsomal Metabolism Assay
(§2) […]; Coenzyme (NADPH/NADH): 1 mM, Sigma Life Science; Magnesium chloride: 5 mM, 100 mM phosphate buffer (pH 7.4).
(§3) Preparation of stock solutions: Powder of the compounds were accurately weighed and dissolved in DMSO to 5 mM.
(§4) Preparation of phosphate buffer (100 mM, pH7.4): A pre-prepared 0.5M potassium dihydrogen phosphate (150 mL) was mixed with 0.5M dibasic potassium phosphate (700 mL). The pH of the mixture was adjusted to 7.4 with 0.5M dibasic potassium phosphate solution. The mixture was diluted 5-fold with ultrapure water before use, and magnesium chloride was added to obtain a phosphate buffer (100 mM) containing 100 mM potassium phosphate, 3.3 mM magnesium chloride, pH 7.4.
(§5) A NADPH regeneration system solution (containing 6.5 mM NADP, 16.5 mM G-6-P, 3 U/mL G-6-P D, 3.3 mM magnesium chloride) was prepared and placed on wet ice prior to use.
(§6) Incubation of the samples: The stock solutions of the respective compounds were respectively diluted to 0.25 mM with an aqueous solution containing 70% acetonitrile, and used as a working solution, ready for use. 398 μL of the dilution of human liver microsomes or rat liver microsomes were added to 96-well incubation plates (N=2), respectively, and 2 μL of 0.25 mM working solution was added and mixed.
(§7) Metabolic stability assay: 300 μL of pre-chilled stop solution was added to each well of 96-well deep well plates and placed on ice as stop plates. The 96-well incubation plates and NADPH regeneration system were placed in a 37° C. water bath box, shaken at 100 rpm and pre-incubated for 5 min. 80 μL of incubation solution was taken out from each well of the incubation plates and added to the stop plates, mixed, and replenished with 20 μL of NADPH regeneration system solution as a 0-min sample. 80 μL of NADPH regeneration system solution was added to each well of the incubation plates to start the reaction and start counting. […] Separately, 100 μL of the reaction solutions was taken at 10, 30, and 90 min reaction, respectively, added to stop plates, and vortexed for 3 minutes to terminate the reaction. The stop plates were centrifuged at 5000×g at 4° C. for 10 min. 100 μL of the supernatant was added to a 96-well plate to which 100 μL of distilled water was previously added, mixed, and analyzed by LC-MS/MS.
(§8) Data analysis: The peak areas of the corresponding compounds and internal standard were detected by LC-MS/MS system, and the ratio of the peak area of the compounds to the internal standard was calculated.
(§9) The metabolic stability of the compounds in human and rat liver microsomes was evaluated by simultaneously testing and comparing the compounds disclosed herein and the non-deuterated compound. […]

[3] = Liver microsomal metabolism assay, rat; type: in vitro ADME; settings: SD, pH 7.4, rat liver microsomes 0.5 mg/mL, compound 1 μM, 37° C.; for microsomal CLint at 1 μM: read-out: Rat liver microsome assay CLint; for half-life at 1 μM: read-out: Rat liver microsome assay t1/2
Description: as §1, §2, §3, §4, §5, §6, §7, §8, §9

[4] = test system: Ba/F3 EML-ALK^L1196M cells; assay: Cytotoxicity assay (cell viability, CellTiter-Glo), Ba/F3 EML-ALK L1196M; type: cell-based; settings: Mus musculus, BaF3, 72 h; cell viability, 3 days incubation; read-out: Ba/F3 EML-ALK^L1196M IC50
[5] = test system: KM12 (TPM3-TRKA) cells; assay: cells; settings: Homo sapiens, KM12, 72 h, read-out: KM12 IC50
Description: (§10) Assay methods: 1. Preparation of cell plates: Ba/F3, and Ba/F3 Bcr-Abl T315I cells were separately seeded in 96-well plates, and 8 ng/ml IL-3 was added to Ba/F3 cells. The cell plates were placed in a carbon dioxide incubator for culture overnight. 2. […] 3. Treatment of cells with compounds: The compounds were transferred to cell plates at a starting concentration of 10 μM. The cell plates were incubated in a carbon dioxide incubator for 3 days. 4. Detection: CellTiter-Glo reagent was added to the cell plates and incubated for 30 minutes at room temperature to stabilize the luminescence signal. Readings were performed using a PerkinElmer Envision multi-label analyzer.

[6] = test system: HCC-78 (SLC34A2-ROS1) cells; assay: cells; settings: Homo sapiens, HCC78, 72 h, read-out: HCC-78 IC50
Description: as §10

[7] = Pharmacokinetic assay in rats; type: in vivo, SD rat; settings: male SD rats, i.g., 3 mg/kg; for AUC(0-t) / Cmax / MRT / Tmax: rat, plasma, po
Description: (4) Pharmacokinetic Assay in Rats Assay objective: after administration of test compounds to rats, the pharmacokinetic behavior of the compounds disclosed herein was investigated. Assay Animals: Species and strains: SD rat grade: SPF grade Gender and quantity: male, 6 Weight range: 180 to 220 g (the actual weight range was from 187 to 197 g) Assay Procedure: Before blood samples were collected, 20 μL of 2 M sodium fluoride solution (esterase inhibitor) was previously added to an EDTA-K2 anticoagulant tube, dried in an 80° C. oven, and placed in a 4° C. refrigerator. Rats (male, weighing 187 to 197 g) were randomly divided into 2 groups, and were fasted overnight in the afternoon before the experiment but were allowed to drink water freely. Food was given 4 hours after the administration. […] About 100-200 μL of blood was taken from the orbital vein of rats at 15 min, 30 min, 1, 2, 3, 5, 8 and 10 h after administration, placed in a 0.5 mL Eppendorf tube with EDTA-K2 anticoagulant and mixed immediately. After anticoagulation, the tube was gently inverted 5-6 times as quickly as possible. After the blood was taken, it was placed in an ice box, and then within 30 min, the blood sample was centrifuged for 10 min at 4000 rpm and 4° C. to separate the plasma. Immediately after collection of all plasma, it was stored at −20° C. The concentration of the drug in plasma at each time point was determined after sample collection at all time points. Based on the data of the average concentration of the drug in plasma versus time after administration obtained as described above, pharmacokinetics-related parameters of male SD rats after the i.g. administration of test compounds (3 mg/kg) were calculated using the Winnonin software according to non-compartment statistical moment theory.

[8] = cell viability, 3 days incubation

| Compound | IC50 [1, 8] [nM] | microsomal CLint at 1 μM [2] [µL/min/mg] | half-life at 1 μM [2] [min] | microsomal CLint at 1 μM [3] [µL/min/mg] | half-life at 1 μM [3] [min] | IC50 [4] [nM] | IC50 [1] [nM] | IC50 [5] [nM] | IC50 [6] [nM] | Cl_pred [7] [mL/min/kg] | F [7] [%] | AUC(0-t) [7] [ng·h/mL] | Cmax [7] [ng/mL] | MRT [7] [min] | Tmax [7] [min] |
| --- | --- | --- | --- | --- | --- | --- | --- | --- | --- | --- | --- | --- | --- | --- | --- |
| [2H]c1c(F)cc(Cc2ccc3[nH]nc(NC(=O)c4ccc(N5CCN(C)CC5)cc4NC4CCOCC4)c3c2)cc1F [Compound T-9] | 50 to 150 | 47.5 | 29.2 | 33.7 | 41.1 | > 200 |  |  |  |  |  |  |  |  |  |
| [2H]C1([2H])N(C)C([2H])([2H])C([2H])([2H])N(c2ccc(C(=O)Nc3n[nH]c4ccc(Cc5cc(F)cc(F)c5)cc34)c(NC3CCOCC3)c2)C1([2H])[2H] [Compound T-2, N-(5-(3,5-difluorobenzyl)-1H-indazol-3-yl)-4-(4-methylpiperazin-1-yl-2,2,3,3,5,5,6,6-d8)-2-((tetrahydro-2H-pyran-4-yl)amino)benzamide] |  | 31.3 | 44.3 | 19.5 | 71.2 |  | 50 to 150 | 1 to 10 | 10 to 50 |  |  |  |  |  |  |
| [2H]C1([2H])CC(Nc2cc(N3CCN(C)CC3)ccc2C(=O)Nc2n[nH]c3ccc(Cc4cc(F)cc(F)c4)cc23)CC([2H])([2H])O1 [Compound T-8, N-(5-(3,5-difluorobenzyl)-1H-indazol-3-yl)-4-(4-methylpiperazin-1-yl)-2-((tetrahydro-2H-pyran-4-yl-2,2,6,6-d4)amino)benzamide] | 50 to 150 | 44.9 | 30.9 | 33.6 | 41.3 | > 200 |  |  |  | 113 | 11.78 | 1530 | 254 | 265 | 200 |
| [2H]c1cc(C(=O)Nc2n[nH]c3ccc(Cc4cc(F)cc(F)c4)cc23)c(NC2CCOCC2)c([2H])c1N1CCN(C)CC1 [Compound T-4, N-(5-(3,5-difluorobenzyl)-1H-indazol-3-yl)-4-(4-methylpiperazin-1-yl)-2-((tetrahydro-2H-pyran-4-yl)amino)benzamide-3,5-d] | 50 to 150 | 36.2 | 38.3 | 21.9 | 63.3 | > 200 |  |  |  |  |  |  |  |  |  |
| [2H]C([2H])(c1cc(F)cc(F)c1)c1ccc2[nH]nc(NC(=O)c3ccc(N4CCN(C([2H])([2H])[2H])CC4)cc3NC3CCOCC3)c2c1 [Compound T-11, N-(5-((3,5-difluorophenyl)methyl-d2)-1H-indazol-3-yl)-4-(4-(methyl-d3)piperazin-1-yl)-2-((tetrahydro-2H-pyran-4-yl)amino)benzamide] | 10 to 50 | 45 | 30.8 | 31 | 44.6 | > 200 |  |  |  |  |  |  |  |  |  |
| [2H]C([2H])([2H])N1C([2H])([2H])C([2H])([2H])N(c2ccc(C(=O)Nc3n[nH]c4ccc(Cc5cc(F)cc(F)c5)cc34)c(NC3CCOCC3)c2)C([2H])([2H])C1([2H])[2H] [Compound T-3, N-(5-(3,5-difluorobenzyl)-1H-indazol-3-yl)-4-(4-(methyl-d3)piperazin-1-yl-2,2,3,3,5,5,6,6-d8)-2-((tetrahydro-2H-pyran-4-yl)amino)benzamide] | 50 to 150 | 39.2 | 35.4 | 27.3 | 50.7 | > 200 |  |  |  | 411 | 13.03 | 1550 | 237 | 295 | 200 |
| [2H]C([2H])(c1cc(F)cc(F)c1)c1ccc2[nH]nc(NC(=O)c3ccc(N4CCN(C)CC4)cc3NC3CCOCC3)c2c1 [Compound T-7, N-(5-((3,5-difluorophenyl)methyl-d2)-1H-indazol-3-yl)-4-(4-methylpiperazin-1-yl)-2-((tetrahydro-2H-pyran-4-yl)amino)benzamide] | 50 to 150 | 51.1 | 27.1 | 33.7 | 41.1 | > 200 |  |  |  | 97.5 | 13.67 | 1770 | 278 | 317 | 240 |
| [2H]c1cc(C(=O)Nc2n[nH]c3ccc(Cc4cc(F)cc(F)c4)cc23)c(NC2CCOCC2)c([2H])c1N1C([2H])([2H])C([2H])([2H])N(C([2H])([2H])[2H])C([2H])([2H])C1([2H])[2H] [Compound T-6, N-(5-(3,5-difluorobenzyl)-1H-indazol-3-yl)-4-(4-(methyl-d3)piperazin-1-yl-2,2,3,3,5,5,6,6-d8)-2-((tetrahydro-2H-pyran-4-yl)amino)benzamide-3,5-d2] | 50 to 150 | 42.5 | 32.6 | 29.7 | 46.7 | > 200 |  |  |  |  |  |  |  |  |  |
| [2H]c1cc(C(=O)Nc2n[nH]c3ccc(Cc4cc(F)cc(F)c4)cc23)c(NC2CCOCC2)c([2H])c1N1CCN(C([2H])([2H])[2H])CC1 [Compound T-5, N-(5-(3,5-difluorobenzyl)-1H-indazol-3-yl)-4-(4-(methyl-d3)piperazin-1-yl)-2-((tetrahydro-2H-pyran-4-yl)amino)benzamide-3,5-d2] | 50 to 150 | 48.2 | 28.8 | 31 | 44.7 | > 200 |  |  |  |  |  |  |  |  |  |
